Patent US4859669A, “Antiinflammatory and anti-hyperproliferative naphthyridin-4-ones” (Schering Corporation, priority 1987, dated 1989)
Read-outs that look alike come from different tables or passages of the source.

Legend:
5-lipoxygenase = molecular target: T1, 5-lipoxygenase (Rattus norvegicus, UniProt P12527); assay: Lipoxygenase assay: arachidonic acid metabolism in rat neutrophils; assay type: cell-based; settings: compound 5×10^-5 Molar
T1 construct: endogenous in cells; host or cells: neutrophils isolated from the pleural exudate of male Wistar-Lewis rats (given "Witar-Lewis" in the source) after BSA / anti-BSA challenge
T1 sequence (P12527 1-673): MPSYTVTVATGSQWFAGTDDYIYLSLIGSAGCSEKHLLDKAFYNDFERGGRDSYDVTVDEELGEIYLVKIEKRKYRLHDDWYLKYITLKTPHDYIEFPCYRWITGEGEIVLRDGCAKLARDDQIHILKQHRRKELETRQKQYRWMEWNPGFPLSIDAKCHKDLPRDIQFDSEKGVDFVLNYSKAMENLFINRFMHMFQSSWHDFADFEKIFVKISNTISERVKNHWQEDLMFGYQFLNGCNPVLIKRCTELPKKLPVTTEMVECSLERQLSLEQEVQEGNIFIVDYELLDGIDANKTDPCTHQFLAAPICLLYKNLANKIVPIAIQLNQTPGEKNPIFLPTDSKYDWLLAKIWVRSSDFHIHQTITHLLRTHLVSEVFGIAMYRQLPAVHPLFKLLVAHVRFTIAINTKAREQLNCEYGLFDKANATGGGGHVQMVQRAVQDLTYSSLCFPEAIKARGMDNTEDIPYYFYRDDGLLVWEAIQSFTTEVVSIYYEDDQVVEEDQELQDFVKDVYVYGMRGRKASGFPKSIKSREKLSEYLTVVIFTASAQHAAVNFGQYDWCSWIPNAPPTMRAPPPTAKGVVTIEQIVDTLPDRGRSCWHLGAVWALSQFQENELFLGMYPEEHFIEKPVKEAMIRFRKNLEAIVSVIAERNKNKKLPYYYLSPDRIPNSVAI
Experimental: The effect of the compounds of the invention on 5-lipoxygenase activity is determined using rat neutrophils. Male Witar-Lewis rats are injected intravenously with 5 mg BSA in 0.2 ml pyrogen free saline followed by an intrapleural injection of 500 ug of the IgG fraction of rabbit anti-BSA (Cappel Labs., Lot 17782) in 0.2 ml pyrogen free saline. Injections are made under light ether anesthesia. Four hours later, the pleural cavity exudate consisting of 85 to 95% neutrophils is removed. Neutrophils are isolated from the pleural exudates by centrifugation of 4° C. for 10 min at 200× g. The cell pellet is resuspended in 17 mM Tris is HCl buffer, pH 7.2, containing 0.75% NH4 Cl to lyse contaminating erythrocytes followed by centrifugation at 4° C. for 5 min at 200× g. The pelleted neutrophils are rewashed in 50 mM Tris HCl, pH 7.4, containing 100 mM NaCl, followed by the same centrifugation. The cell pellet is resuspended in 50 mM Tris HCl, pH 7.4, containing 100 mM NaCl and 1 mM CaCl2, at 3-12×10^7 intact neutrophils per ml.
Solutions of compounds in methanol are dried, then resuspended in the cell suspension for 4 min. Arachidonic acid methabolism is determined by incubating 0.1 ml of this suspension with 40 μM [1-^14 C] arachidonic acid (AA) (Amersham, 59 Ci/mole), in the presence of 0.1% BRIJ 56 and 10 μM A23187. Arachidonic acid metabolism as well as the various drug and reagent abbreviations are described in detail in Arch. Dermatol, Vol. 119, pages 541 to 547 (July 1983), the teachings of which are incorporated herein by reference. Assays run in triplicate are initiated by adding cells with inhibitor to a film of the BRIJ 56, arachidonic acid and A23187 37° C. After one minute, reactions are terminated by the addition of 2.4 ml of a chloroform:methanol (1:1 v/v) mixture and 0.9 ml of 0.1% formic acid. […] Products, leukotriene B4 (LTB4), 12-hydroxy heptadecatrienoic acid (HHT) and 5-hydroxy icosatetraenoic acid (5-HETE), are located by autoradiography and appropriate regions of the thin layer plates are scraped and counted in a liquid scintillation counter. […]

[1] = tested on: Male Lewis inbred albino rats; assay: Reversed passive Arthus reaction (RPAR), rat paw volume; assay type: in vivo; settings: po, 1 h, dosed one hour prior to sensitization with BSA
Experimental: REVERSED PASSIVE ARTHUS REACTION (RPAR) ANIMALS, MATERIALS AND METHODS
Male Lewis inbred albino rats weighting 180-220 grams obtained from Charles River Breeding Laboratories are used in these experiments. The rats are housed 3 animals/cage and food and water are allowed ad libitum. The animals are numbered 1-3 in each cage and color marked for identification purposes.
All reagents and drugs are prepared just prior to the study. Crystallized and lyophilized bovine serum albumin (BSA), obtained from Sigma Chemical Company, is solubilized without shaking in cold sterile pyrogen free saline (10 mg/ml). Lyophilized anti-bovine serum albumin (IgG Fraction), obtained from Cappel Laboratories, is suspended in sterile distilled water and diluted with cold pyrogen free saline (PFS) just prior to use. The final concentration of anti-bovine serum albumin is 0.5 mg/ml of PFS. Both BSA and anti-BSA solutions are iced during use. Drugs are suspended or solubilized in an aqueous solution of methyl cellulose (MC) with a homogenizer just prior to administration.
Groups of animals (6/group) are dosed with drug in MC by gavage one hour prior to sensitization with BSA. […] The volume of mercury displaced is converted to weight and recorded. […] Paw volumes are also recorded with a plethysmograph during the development of the inflammation at 2 and 4 hours post-challenge.

pleural cavity of rats = assay: Reverse passive Arthus reaction in the pleural cavity of rats (Myers et al.); assay type: in vivo; settings: po; rat
Text: Another procedure for testing for acute antiinflammatory activity measures the reverse passive Arthus reaction in the pleural cavity of rats as described in Myers et al., Inflammation, Vol. 9, No. 1, 1985, pp. 91-98.

Structure (SMILES)	inhibition at 50 µM (5-lipoxygenase; read-out: inhibition of HETE production) [%]	inhibition at 50 µM (5-lipoxygenase; read-out: inhibition of HHT production) [%]	inhibition at 50 µM (5-lipoxygenase; read-out: inhibition of LTB4 production) [%]	ED50 [1] [mg/kg]	ED50 (pleural cavity of rats) [mg/kg]
O=c1c2c(c3cccnc3n1-c1ccccc1)N(c1ccccc1)CC2 [1,2,3,5-tetrahydro-1,5-diphenyl-4H-pyrrolo[3,2-c][1,8]napthyridin-4-one]	60	~40	60	–	–
O=c1c2c(c3cccnc3n1-c1ccccc1)NCC2 [1,2,3,5-tetrahydro-5-phenyl-4H-pyrrolo[3,2-c][1,8]naphthyridin-4-one]	–	–	–	~25	< 25
CCOC(=O)N1CCc2c1c1cccnc1n(-c1ccccc1)c2=O [2,3,4,5-tetrahydro-4-oxo-5-phenyl-1H-pyrrolo[3,2-c][1,8]napthyridine-1-carboxylic acid, ethyl ester]	–	–	–	–	~25
